Results from ChEMBL document CHEMBL5108024, “New C-6 functionalized quinoline NorA inhibitors strongly synergize with ciprofloxacin against planktonic and biofilm growing resistant Staphylococcus aureus strains” (Eur J Med Chem, 2022).
Values after ≈ are worked out from the molar mass of the structure shown. Values joined by “and” are separate entries in the source; they are usually repeats but may differ in a detail not shown here. Identical values can stand only once. Active and inactive are the calls of the source. The rule behind the calls is not given here.

Test system: Staphylococcus aureus
Experiment: Synergistic antibacterial activity against Staphylococcus aureus 1199B overexpressing norA and harboring A116E grlA mutant assessed as eight fold minimum potentiating concentration incubated in presence of ciprofloxacin by checkerboard assay
Type: functional
Details: not given

Row | SMILES | MPC [µg/mL]
1 | CCCOc1ccc(-c2cc(OCCN3CCCCC3)c3cc(OC(F)F)ccc3n2)cc1 | 0.78
2 | CCCOc1ccc(-c2cc(OCCN3CCCCCC3)c3cc(C(F)(F)F)ccc3n2)cc1 | 1.56
3 | CCCOc1ccc(-c2cc(OCCN3CCCCC3)c3cc(C(F)(F)F)ccc3n2)cc1 | 3.13

Test system: Staphylococcus aureus
Experiment: Synergistic antibiofilm activity against Staphylococcus aureus 1199B overexpressing norA and harboring A116E grlA mutant assessed as biofilm eradication by measuring ciprofloxacin MBEC at 3.13 ug/ml incubated for 24 hrs by Calgary biofilm device assay
Type: functional
Details: dose 3.13 µg/ml

Row | SMILES | MBEC [µg/mL]
4 | CCCOc1ccc(-c2cc(OCCN3CCCCC3)c3cc(OC(F)F)ccc3n2)cc1 | 0.63
5 | CCCOc1ccc(-c2cc(OCCN3CCCCCC3)c3cc(C(F)(F)F)ccc3n2)cc1 | 0.63
6 | CCCOc1ccc(-c2cc(OCCN3CCCCC3)c3cc(C(F)(F)F)ccc3n2)cc1 | >50

Test system: Staphylococcus aureus
Experiment: Antibacterial activity against ciprofloxacin-susceptible wild type Staphylococcus aureus 1199 assessed as inhibition of bacterial growth by broth microdilution method
Type: functional
Details: not given

Row | SMILES | MIC [µg/mL]
7 | CCCOc1ccc(-c2cc(OCCN3CCCCC3)c3cc(OC(F)F)ccc3n2)cc1 | > 50
8 | CCCOc1ccc(-c2cc(OCCN3CCCCCC3)c3cc(C(F)(F)F)ccc3n2)cc1 | > 50
9 | CCCOc1ccc(-c2cc(OCCN3CCCCC3)c3cc(C(F)(F)F)ccc3n2)cc1 | > 50

Test system: Staphylococcus aureus
Experiment: (§1) Potentiation of ciprofloxacin-induced antibacterial activity against Staphylococcus aureus 1199B overexpressing norA and harboring A116E grlA mutant assessed as time for post-antibiotic effect at 6.25 ug/ml preincubated for 1 hr followed by compound washout and measured after 5 hrs
Type: functional
Details: dose 6.25 µg/ml

Row | SMILES | Time [h]
10 | CCCOc1ccc(-c2cc(OCCN3CCCCC3)c3cc(OC(F)F)ccc3n2)cc1 | 1.2

Test system: Staphylococcus aureus
Experiment: Synergistic antibacterial activity against ciprofloxacin-resistant Staphylococcus aureus 1199B overexpressing norA and harboring A116E grlA mutant assessed as fold reduction in ciprofloxacin MIC at 6.25 uM by broth microdilution method
Type: functional
Details: not given

Row | SMILES | fold change (FC)
11 | CCCOc1ccc(-c2cc(OCCN3CCCCC3)c3cc(OC(F)F)ccc3n2)cc1 | >=8
12 | CCCOc1ccc(-c2cc(OCCN3CCCCCC3)c3cc(C(F)(F)F)ccc3n2)cc1 | >=8
13 | CCCOc1ccc(-c2cc(OCCN3CCCCC3)c3cc(C(F)(F)F)ccc3n2)cc1 | 8

Test system: Staphylococcus aureus
Experiment: Synergistic bactericidal activity against Staphylococcus aureus 1199B overexpressing norA and harboring A116E grlA mutant assessed as reduction in bacterial count at 6.25 ug/ml incubated for 6 hrs in presence of ciprofloxacin at MIC by time kill assay
Type: functional, organism-based
Details: dose 6.25 µg/ml

Row | SMILES | Activity
14 | CCCOc1ccc(-c2cc(OCCN3CCCCC3)c3cc(OC(F)F)ccc3n2)cc1 | Active

Test system: Staphylococcus aureus
Experiment: Antibacterial activity against norA deleted Staphylococcus aureus K1902 assessed as inhibition of bacterial growth by broth microdilution method
Type: functional
Details: not given

Row | SMILES | MIC [µg/mL]
15 | CCCOc1ccc(-c2cc(OCCN3CCCCC3)c3cc(OC(F)F)ccc3n2)cc1 | 25 (≈ 54.8 µM)
16 | CCCOc1ccc(-c2cc(OCCN3CCCCCC3)c3cc(C(F)(F)F)ccc3n2)cc1 | > 50

Test system: not listed separately
Experiment: Cytotoxicity against human THP-1 cells assessed as cell viability at 12.5 ug/ml incubated for 24 hrs by MTT assay relative to control
Type: toxicity, cell-based
Details: at 12.5 µg/mL, read-out: Activity

Row | SMILES | viability at 24 h, 12.5 ug/ml [%]
17 | CCCOc1ccc(-c2cc(OCCN3CCCCC3)c3cc(OC(F)F)ccc3n2)cc1 | 9.4
18 | CCCOc1ccc(-c2cc(OCCN3CCCCCC3)c3cc(C(F)(F)F)ccc3n2)cc1 | 27

Test system: not listed separately
Experiment: Cytotoxicity against human A549 cells assessed as cell viability at 12.5 ug/ml incubated for 24 hrs by MTT assay relative to control
Type: toxicity, cell-based
Details: at 12.5 µg/mL, read-out: Activity

Row | SMILES | viability at 24 h, 12.5 ug/ml [%]
19 | CCCOc1ccc(-c2cc(OCCN3CCCCC3)c3cc(OC(F)F)ccc3n2)cc1 | 100
20 | CCCOc1ccc(-c2cc(OCCN3CCCCCC3)c3cc(C(F)(F)F)ccc3n2)cc1 | 77.1

Test system: Staphylococcus aureus
Experiment: Synergistic antibiofilm activity against wild type Staphylococcus aureus 1199 assessed as biofilm eradication by measuring ciprofloxacin MBEC at 3.13 ug/ml incubated for 24 hrs by Calgary biofilm device assay
Type: functional
Details: dose 3.13 µg/ml

Row | SMILES | MBEC [µg/mL]
21 | CCCOc1ccc(-c2cc(OCCN3CCCCC3)c3cc(OC(F)F)ccc3n2)cc1 | 0.07
22 | CCCOc1ccc(-c2cc(OCCN3CCCCCC3)c3cc(C(F)(F)F)ccc3n2)cc1 | 0.07
23 | CCCOc1ccc(-c2cc(OCCN3CCCCC3)c3cc(C(F)(F)F)ccc3n2)cc1 | 0.07

Test system: Staphylococcus aureus
Experiment: Synergistic antibacterial activity against Staphylococcus aureus K2378 overexpressing norA assessed as fold reduction in ciprofloxacin MIC at 0.2 to 12.5 ug/ml by checkerboard assay
Type: functional
Details: dose 0.2-12.5 µg/ml

Row | SMILES | fold change (FC)
24 | CCCOc1ccc(-c2cc(OCCN3CCCCC3)c3cc(OC(F)F)ccc3n2)cc1 | 4
25 | CCCOc1ccc(-c2cc(OCCN3CCCCCC3)c3cc(C(F)(F)F)ccc3n2)cc1 | 4

Test system: not listed separately
Experiment: Cytotoxicity against human A549 cells assessed as cell viability at 3.13 ug/ml incubated for 24 hrs by MTT assay relative to control
Type: toxicity, cell-based
Details: at 3.13 µg/mL, read-out: Activity

Row | SMILES | viability at 24 h, 3.13 ug/ml [%]
26 | CCCOc1ccc(-c2cc(OCCN3CCCCC3)c3cc(OC(F)F)ccc3n2)cc1 | 100
27 | CCCOc1ccc(-c2cc(OCCN3CCCCCC3)c3cc(C(F)(F)F)ccc3n2)cc1 | 100

Test system: Staphylococcus aureus
Experiment: Synergistic bactericidal activity against Staphylococcus aureus 1199B overexpressing norA and harboring A116E grlA mutant assessed as reduction in bacterial count by measuring log reduction in colony forming count per ml at 6.25 ug/ml incubated for 4 hrs in presence of ciprofloxacin at 0.25 to 1 times MIC by time kill assay
Type: functional
Details: dose 6.25 µg/ml

Row | SMILES | log(activity)
28 | CCCOc1ccc(-c2cc(OCCN3CCCCC3)c3cc(OC(F)F)ccc3n2)cc1 | 3

Test system: Staphylococcus aureus
Experiment: Synergistic antibacterial activity against Staphylococcus aureus 1199B overexpressing norA and harboring A116E grlA mutant assessed as four fold minimum potentiating concentration incubated in presence of ciprofloxacin by checkerboard assay
Type: functional
Details: not given

Row | SMILES | MPC [µg/mL]
29 | CCCOc1ccc(-c2cc(OCCN3CCCCC3)c3cc(OC(F)F)ccc3n2)cc1 | 0.39

Test system: Staphylococcus aureus
Experiment: Antibacterial activity against Staphylococcus aureus K2378 harbouring norA promoting and coding region assessed as inhibition of bacterial growth by broth microdilution method
Type: functional
Details: not given

Row | SMILES | MIC [µg/mL]
30 | CCCOc1ccc(-c2cc(OCCN3CCCCC3)c3cc(OC(F)F)ccc3n2)cc1 | 25 (≈ 54.8 µM)
31 | CCCOc1ccc(-c2cc(OCCN3CCCCCC3)c3cc(C(F)(F)F)ccc3n2)cc1 | > 50

Test system: Staphylococcus aureus
Experiment: as §1, with “as” for “as time for”, “effect by measuring log reduction in colony forming unit per ml” for “effect”
Type: functional
Details: dose 6.25 µg/ml

Row | SMILES | log(activity)
32 | CCCOc1ccc(-c2cc(OCCN3CCCCC3)c3cc(OC(F)F)ccc3n2)cc1 | 1

Test system: Staphylococcus aureus
Experiment: Synergistic antibiofilm activity against norA deleted Staphylococcus aureus K1902 assessed as biofilm eradication by measuring ciprofloxacin MBEC at 3.13 ug/ml incubated for 24 hrs by Calgary biofilm device assay
Type: functional
Details: dose 3.13 µg/ml

Row | SMILES | MBEC [µg/mL]
33 | CCCOc1ccc(-c2cc(OCCN3CCCCC3)c3cc(OC(F)F)ccc3n2)cc1 | 40

Test system: not listed separately
Experiment: Cytotoxicity against human THP-1 cells assessed as cell viability incubated for 24 hrs by MTT assay
Type: toxicity, cell-based
Details: not given

Row | SMILES | CC50 at 24 h [µg/mL]
34 | CCCOc1ccc(-c2cc(OCCN3CCCCC3)c3cc(OC(F)F)ccc3n2)cc1 | > 3.13
35 | CCCOc1ccc(-c2cc(OCCN3CCCCCC3)c3cc(C(F)(F)F)ccc3n2)cc1 | > 3.13

Test system: Staphylococcus aureus
Experiment: Antibacterial activity against ciprofloxacin-resistant Staphylococcus aureus 1199B overexpressing norA and harboring A116E grlA mutant assessed as inhibition of bacterial growth by broth microdilution method
Type: functional
Details: not given

Row | SMILES | MIC
36 | CCCOc1ccc(-c2cc(OCCN3CCCCC3)c3cc(OC(F)F)ccc3n2)cc1 | > 50 µg/mL and > 548 µM
37 | CCCOc1ccc(-c2cc(OCCN3CCCCCC3)c3cc(C(F)(F)F)ccc3n2)cc1 | > 50 µg/mL and > 529 µM
38 | CCCOc1ccc(-c2cc(OCCN3CCCCC3)c3cc(C(F)(F)F)ccc3n2)cc1 | > 50 µg/mL and > 545 µM

Test system: Staphylococcus aureus
Experiment: Inhibition of EtBr efflux in ciprofloxacin-resistant Staphylococcus aureus 1199B overexpressing norA and harboring A116E grlA mutant assessed as reduction in fluorescence intensity at 50 uM measured for 5 mins by microplate reader analysis relative to control
Type: functional
Details: not given

Row | SMILES | inhibition [%]
39 | CCCOc1ccc(-c2cc(OCCN3CCCCC3)c3cc(OC(F)F)ccc3n2)cc1 | 80.2
40 | CCCOc1ccc(-c2cc(OCCN3CCCCCC3)c3cc(C(F)(F)F)ccc3n2)cc1 | 85.7
41 | CCCOc1ccc(-c2cc(OCCN3CCCCC3)c3cc(C(F)(F)F)ccc3n2)cc1 | 87.4

Test system: Staphylococcus aureus
Experiment: Synergistic antibiofilm activity against wild type Staphylococcus aureus 1199 assessed as biofilm eradication by measuring fold reduction in ciprofloxacin MBEC at 3.13 ug/ml incubated for 24 hrs by Calgary biofilm device assay
Type: functional
Details: dose 3.13 µg/ml

Row | SMILES | fold change (FC)
42 | CCCOc1ccc(-c2cc(OCCN3CCCCC3)c3cc(OC(F)F)ccc3n2)cc1 | 286
43 | CCCOc1ccc(-c2cc(OCCN3CCCCCC3)c3cc(C(F)(F)F)ccc3n2)cc1 | 286

Test system: Staphylococcus aureus
Experiment: Inhibition of EtBr efflux in ciprofloxacin-resistant Staphylococcus aureus 1199B overexpressing norA and harboring A116E grlA mutant assessed as reduction in fluorescence intensity at 10 uM measured for 5 mins by microplate reader analysis relative to control
Type: functional
Details: not given

Row | SMILES | inhibition [%]
44 | CCCOc1ccc(-c2cc(OCCN3CCCCC3)c3cc(OC(F)F)ccc3n2)cc1 | 85
45 | CCCOc1ccc(-c2cc(OCCN3CCCCCC3)c3cc(C(F)(F)F)ccc3n2)cc1 | 65.6
46 | CCCOc1ccc(-c2cc(OCCN3CCCCC3)c3cc(C(F)(F)F)ccc3n2)cc1 | 70.1

Test system: not listed separately
Experiment: Cytotoxicity against human THP-1 cells assessed as cell viability at 3.13 ug/ml incubated for 24 hrs by MTT assay relative to control
Type: toxicity, cell-based
Details: at 3.13 µg/mL, read-out: Activity

Row | SMILES | viability at 24 h, 3.13 ug/ml [%]
47 | CCCOc1ccc(-c2cc(OCCN3CCCCC3)c3cc(OC(F)F)ccc3n2)cc1 | 67.7
48 | CCCOc1ccc(-c2cc(OCCN3CCCCCC3)c3cc(C(F)(F)F)ccc3n2)cc1 | 65.4

Test system: Staphylococcus aureus
Experiment: Synergistic antibiofilm activity against Staphylococcus aureus 1199B overexpressing norA and harboring A116E grlA mutant assessed as biofilm eradication by measuring fold reduction in ciprofloxacin MBEC at 3.13 ug/ml incubated for 24 hrs by Calgary biofilm device assay
Type: functional
Details: dose 3.13 µg/ml

Row | SMILES | fold change (FC)
49 | CCCOc1ccc(-c2cc(OCCN3CCCCC3)c3cc(OC(F)F)ccc3n2)cc1 | 512
50 | CCCOc1ccc(-c2cc(OCCN3CCCCCC3)c3cc(C(F)(F)F)ccc3n2)cc1 | 512
